In article PMC8286840, “Identifying SARS-CoV-2 antiviral compounds by screening for small molecule inhibitors of Nsp3 papain-like protease” (Biochemical Journal, 2021):
Counter-ions that a name gives are not always drawn. Like-named read-outs stand apart in the source and are kept apart here.

Legend:
[1] = target: T1, SARS-CoV-2 PLpro (nsp3 1564–1878) (Severe acute respiratory syndrome coronavirus 2, UniProt P0DTD1); assay: biochemical; design: FRET-quenched peptide (Pro3) cleavage by PLpro, 10 min pre-incubation, slope over 20 min, normalised to no-compound control; conditions: low concentration screen, read-out: % of control remaining
[2] = target: T1, SARS-CoV-2 PLpro (nsp3 1564–1878); assay: biochemical; design: FRET-quenched peptide (Pro3) cleavage by PLpro, 10 min pre-incubation, slope over 20 min, normalised to no-compound control; conditions: high concentration screen, read-out: % of control remaining

O=C(O)CSc1cc(NS(=O)(=O)c2ccc(Br)cc2)c2ccccc2c1O [UMI-77]
remaining activity at 1.25 µM ([1]; Well no.=6454): 95.1% | remaining activity at 3.75 µM ([2]; Well no.=6454): 93.1%

COc1cc2c(cc1OC)[C@@H](c1ccccc1)CN(C)CC2 [R(-)-SCH-12679 maleate]
remaining activity at 1.25 µM ([1]; Well no.=1231): 101% | remaining activity at 3.75 µM ([2]; Well no.=1231): 104%

Cn1ccnc1S [Methimazole]
remaining activity at 1.25 µM ([1]; Well no.=1961): 92.6% | remaining activity at 3.75 µM ([2]; Well no.=1961): 94.6%

O=C(/C=C/c1ccc(O)c(O)c1)O[C@H](Cc1ccc(O)c(O)c1)C(=O)O [Rosmarinic acid]
remaining activity at 1.25 µM ([1]; Well no.=3940): 102% | remaining activity at 1.25 µM ([1]; Well no.=4516): 95% | remaining activity at 3.75 µM ([2]; Well no.=3140): 103% | remaining activity at 3.75 µM ([2]; Well no.=3940): 99.3% | remaining activity at 3.75 µM ([2]; Well no.=4516): 94.6%

COc1cccc(-c2cn(-c3ccc(CCN4CCC(O)CC4)cc3)c3ncnc(N)c23)c1 [CGP77675]
remaining activity at 1.25 µM ([1]; Well no.=5466): 93.4% | remaining activity at 3.75 µM ([2]; Well no.=5466): 99.9%

O=C1O[C@H]([C@@H](O)CO)[C@H](O)[C@@H]1O [L-Gulono-1,4-lactone]
remaining activity at 1.25 µM ([1]; Well no.=6771): 102% | remaining activity at 3.75 µM ([2]; Well no.=6771): 104%

S=C=Nc1cccc(C2(N3CCCCC3)CCCCC2)c1 [Metaphit methanesulfonate]
remaining activity at 1.25 µM ([1]; Well no.=991): 98.8% | remaining activity at 3.75 µM ([2]; Well no.=991): 98.9%

COC(=O)c1cc(OC)c2c(c1-c1c(CO)cc(OC)c3c1OCO3)OCO2 [Bicyclol]
remaining activity at 1.25 µM ([1]; Well no.=5916): 107% | remaining activity at 3.75 µM ([2]; Well no.=5916): 100%

O=c1c(O)c(-c2ccc(O)cc2)oc2cc(O)cc(O)c12 [Kaempferol]
remaining activity at 1.25 µM ([1]; Well no.=3426): 89.4% | remaining activity at 1.25 µM ([1]; Well no.=6246): 105% | remaining activity at 3.75 µM ([2]; Well no.=3426): 90.3% | remaining activity at 3.75 µM ([2]; Well no.=6246): 109%

O=C(O)/C=C(\CC(=O)O)C(=O)O [trans-Aconitic acid]
remaining activity at 1.25 µM ([1]; Well no.=6827): 94.2% | remaining activity at 3.75 µM ([2]; Well no.=6827): 95.7%

CN1C[C@@H](NS(=O)(=O)N(C)C)C[C@@H]2c3cccc4c3c(cn4C)C[C@H]21 [Mesulergine hydrochloride]
remaining activity at 1.25 µM ([1]; Well no.=897): 106% | remaining activity at 3.75 µM ([2]; Well no.=897): 105%

Cn1cc(C2=C(c3ccc(Cl)cc3Cl)C(=O)NC2=O)c2ccccc21 [SB-216763]
remaining activity at 1.25 µM ([1]; Well no.=3035): 87.5% | remaining activity at 3.75 µM ([2]; Well no.=3035): 89.6%

CCN[C@H]1C[C@H](C)S(=O)(=O)c2sc(S(N)(=O)=O)cc21 [Dorzolamide HCl]
remaining activity at 1.25 µM ([1]; Well no.=5205): 92.8% | remaining activity at 3.75 µM ([2]; Well no.=5205): 95%

C[C@@H](O)CC(=O)O [(R)-3-Hydroxybutanoic acid]
remaining activity at 1.25 µM ([1]; Well no.=7123): 106% | remaining activity at 3.75 µM ([2]; Well no.=7123): 105%

C#C[C@]1(O)CC[C@H]2[C@@H]3CCc4cc(O)ccc4[C@H]3CC[C@@]21C [Ethynyl Estradiol]
remaining activity at 1.25 µM ([1]; Well no.=6487): 103% | remaining activity at 3.75 µM ([2]; Well no.=6487): 102%

CCOC(=O)n1ccn(C)c1=S [Carbimazole]
remaining activity at 1.25 µM ([1]; Well no.=5124): 104% | remaining activity at 3.75 µM ([2]; Well no.=5124): 105%

Nc1nc2ccccc2c2ccccc12 [6-phenanthridinamine]
remaining activity at 1.25 µM ([1]; Well no.=5389): 106% | remaining activity at 3.75 µM ([2]; Well no.=5389): 102%

CCCN(CCN1CCN(c2ccccc2OC)CC1)C1CCc2ncsc2C1 (stereo not drawn) [ST-836 (hydrochloride)]
remaining activity at 1.25 µM ([1]; Well no.=8445): 89.3% | remaining activity at 3.75 µM ([2]; Well no.=8445): 92.2%

Nc1ccc(/C=C/c2cccc(C(=O)O)n2)cc1 [CB-7921220]
remaining activity at 1.25 µM ([1]; Well no.=7759): 103% | remaining activity at 3.75 µM ([2]; Well no.=7759): 95.7%

COc1c2ccoc2cc2oc(=O)ccc12 [Bergapten]
remaining activity at 1.25 µM ([1]; Well no.=3789): 92.7% | remaining activity at 3.75 µM ([2]; Well no.=3789): 87%

O=C(O)c1cc(C(F)(F)F)ccc1N1CC[C@H](OCc2ccccn2)C1 [XEN445]
remaining activity at 1.25 µM ([1]; Well no.=8574): 105% | remaining activity at 3.75 µM ([2]; Well no.=8574): 109%

CCCCCCCCCCCCCC[C@@H](O)[C@@H](O)[C@@H](CO)NC(C)=O [C2 Phytoceramide]
remaining activity at 1.25 µM ([1]; Well no.=3531): 99.2% | remaining activity at 3.75 µM ([2]; Well no.=3531): 104%

C[N+]1(C)CCC[C@H]1C(=O)O
remaining activity at 1.25 µM ([1]; Well no.=3118): 107% | remaining activity at 3.75 µM ([2]; Well no.=3118): 105%

C=C(C)[C@H]1Cc2c(ccc3c2O[C@@H]2COc4cc(OC)c(OC)cc4[C@@H]2C3=O)O1 [Rotenone]
remaining activity at 1.25 µM ([1]; Well no.=1494): 97.2% | remaining activity at 1.25 µM ([1]; Well no.=3142): 104% | remaining activity at 1.25 µM ([1]; Well no.=7122): 91.7% | remaining activity at 3.75 µM ([2]; Well no.=1494): 98.9% | remaining activity at 3.75 µM ([2]; Well no.=3142): 98.6% | remaining activity at 3.75 µM ([2]; Well no.=7122): 89.8%

Cc1c(O)c(=O)ccn1C [Deferiprone]
remaining activity at 1.25 µM ([1]; Well no.=5130): 97.3% | remaining activity at 3.75 µM ([2]; Well no.=5130): 98.7%

O=c1[nH]c(=O)n([C@H]2C[C@H](O)[C@@H](CO)O2)cc1/C=C/Br [(E)-5-(2-Bromovinyl)-2'-deoxyuridine]
remaining activity at 1.25 µM ([1]; Well no.=83): 94.9% | remaining activity at 3.75 µM ([2]; Well no.=83): 94.4%

CN1C[C@@H]2C[C@H]1CN2c1cc2c(cc1F)c(=O)c(C(=O)O)cn2C1CC1 [Danofloxacin Mesylate]
remaining activity at 1.25 µM ([1]; Well no.=5322): 87.6% | remaining activity at 3.75 µM ([2]; Well no.=5322): 86.3%

Nc1nc(F)nc2c1ncn2[C@@H]1O[C@H](COP(=O)(O)O)[C@@H](O)[C@@H]1O [Fludarabine (phosphate)]
remaining activity at 1.25 µM ([1]; Well no.=8046): 95.8% | remaining activity at 3.75 µM ([2]; Well no.=8046): 98%

Nc1ncnc2c1ncn2[C@@H]1O[C@H](CO)[C@@H](O)[C@@H]1O [Vidarabine]
remaining activity at 1.25 µM ([1]; Well no.=2046): 107% | remaining activity at 1.25 µM ([1]; Well no.=8006): 93.6% | remaining activity at 3.75 µM ([2]; Well no.=2046): 110% | remaining activity at 3.75 µM ([2]; Well no.=8006): 95.5%

CCCC(CCC)C(=O)O [Valproic acid]
remaining activity at 1.25 µM ([1]; Well no.=1758): 98.8% | remaining activity at 3.75 µM ([2]; Well no.=1758): 100%

CCCc1nc(C(C)(C)O)c(C(=O)O)n1Cc1ccc(-c2ccccc2-c2nnn[nH]2)cc1 [Olmesartan]
remaining activity at 1.25 µM ([1]; Well no.=1794): 94.8% | remaining activity at 1.25 µM ([1]; Well no.=7669): 100% | remaining activity at 3.75 µM ([2]; Well no.=1794): 95.4% | remaining activity at 3.75 µM ([2]; Well no.=7669): 99%

Nc1ccn([C@@H]2O[C@H](CO)[C@@H](O)C2(F)F)c(=O)n1 [Gemcitabine HCl (Gemzar)]
remaining activity at 1.25 µM ([1]; Well no.=5059): 104% | remaining activity at 3.75 µM ([2]; Well no.=5059): 107%

CCCCC/C=C\C/C=C\CCCCCCCC(=O)NCC(=O)O [N-Linoleoylglycine]
remaining activity at 1.25 µM ([1]; Well no.=4595): 95% | remaining activity at 3.75 µM ([2]; Well no.=4595): 94.3%

O=C(O)CCCCCCC(=O)O [Octanedioic acid]
remaining activity at 1.25 µM ([1]; Well no.=6931): 108% | remaining activity at 3.75 µM ([2]; Well no.=6931): 103%
